Results taken from a melting point compilation (Tetko et al.; mined from patent text by program, amines drawn as free bases though some values may be those of a salt).

Point of comparison: `CCOC(=O)C1=C(CC)NN=C(C(=O)OC)C1c1cccc([N+](=O)[O-])c1` (stereo not given), melting point 139 °C. Against it:
- CCCCc1nn(-c2cc([N+](=O)[O-])ccc2Cl)c(=O)n1Cc1ccc(-c2ccccc2S(=O)(=O)NC(C)(C)C)cc1F — lower, 124 to 126 °C
- CCCc1cc2ccc(CC(=O)OC)cc2n1C(C)=O — lower, 85 to 87 °C
- CCCCC(OC(C)=O)c1ccccc1COc1cccc2cccnc12 (stereo not given) — lower, 80 to 82 °C
- S=C1NCC(Cl)=NN1c1cc(Cl)cc(Cl)c1 — higher, 207 to 208 °C
- COc1ccc(-n2c(=O)c(CCCO)c(O)c3cccnc32)cc1 — higher, 229 to 231 °C
- N#Cc1cc(N)ccc1N — lower, 85 to 87 °C
- CC1(C)C(=O)N(c2ccc(C#N)c(C(F)(F)F)c2)C(=O)N1CC1CC1CN1C(=O)N(c2ccc(C#N)c(C(F)(F)F)c2)C(=O)C1(C)C (stereo not given) — higher, 178 to 180 °C
- Clc1cnc(Br)c(Br)c1 — lower, 39.5 to 43 °C
- CCC1(CC)OC(=O)Nc2ccc(-c3cccc([N+](=O)[O-])c3)cc21 — higher, 193 to 194 °C
- CCCN(C1CCC1)[C@H]1COc2c(F)ccc(C(N)=O)c2C1 — lower, 107 to 109 °C
- CCOC(=O)[C@H](Cc1ccc(OC)cc1)NC(=O)C1(NC(=O)OC(C)(C)C)CCCC1 — higher, 143 to 146 °C
- Nc1ccc2[nH]c3ccc([N+](=O)[O-])cc3c(=O)c2c1 — higher, > 350 °C
- CC(C)(C)c1cc(OCCCCc2nnn[nH]2)cc(C(C)(C)C)c1O — higher, 141 to 142 °C
- O=c1c2ccccc2nc(-c2cc(-c3ccccc3)c(N3CCOCC3)s2)n1-c1ccc(Cl)cc1 — higher, 223 to 224 °C
- CCc1nc(O)cc(O)n1 — higher, 312 to 315 °C
- COc1cc(C[C@H](NC(=O)OC(C)(C)C)C(=O)O)cc(OC)c1OC — lower, 76 to 80 °C
- CCOC(=O)C(=CNc1nccs1)C(=O)c1c(Cl)cc(Cl)nc1Cl — lower, 126 to 127 °C
- FC(F)(F)Oc1ccc2[nH]c(S)nc2c1 — higher, 305 to 307 °C
- CCCc1[nH]nc2c1C(=O)c1c(NC(N)=O)cccc1-2 — higher, 187 to 189 °C
- Oc1ccc(C2CC2(Cl)Cl)cc1 (stereo not given) — lower, 54.5 to 56 °C
- CCOC(=O)c1ccc(-n2ccc(=O)cc2)cc1 — higher, 178 to 180 °C
- CCN(CC)C(=O)c1ccoc1-c1ccc2ccccc2c1 — lower, 92 to 93 °C
- CCCCCCCNc1ccncc1 — lower, 50 to 52 °C
- CC(CN1C(=O)c2ccccc2C1=O)C(=NO)n1nc(C(C)(C)C)cc1N (stereo not given) — higher, 198 to 199 °C
- C=C(C(=O)O)c1ccc(OC)c(OC)c1 — lower, 128 °C
- CC(=O)NC[C@H]1CN(c2ccc(N3CCS(=O)CC3)cc2)C(=O)O1 — higher, 185 to 186 °C
- O=C1c2cccc3c(N4CCCC4)c(F)cc(c23)C(=O)N1O — higher, 224 to 226 °C
- COC(c1cc2c3c(c1)c(C)cc(=O)n3CC2)(C(F)(F)F)C(F)(F)F — higher, 242 to 243 °C
- CC(=O)N1CCS(=O)c2ccccc2C1 (stereo not given) — higher, 156 to 157 °C
- O=C(NC1CCN(Cc2ccccc2)CC1)c1c[nH]c2ccc(F)cc12 — higher, 215 to 217 °C
- CC(=O)Oc1ccc2c(c1)COc1cc3cc(OC(C)=O)ccc3cc1-2 — higher, 194 to 195 °C
- O=C1C=c2c(c3c4ccccc4sc3c3[nH]c4ccccc4c23)=N1 — higher, > 300 °C
- CCCN1C(=O)c2cscc2Nc2ccccc21 — higher, 166 to 167 °C
- CC(C)(C)OC(=O)N[C@@H](CC1CCCCC1)[C@@H](O)[C@@H](O)CN=[N+]=[N-] — lower, 93 to 94 °C
- COc1nc(N2C(=O)C3CCCCN3C2=O)c(F)cc1C#N (stereo not given) — higher, 159 to 170 °C
- Cc1cccnc1C=CCN1CCc2nc(N)sc2CC1 — higher, 188 to 190 °C
- CCC(=O)COc1nn(CC(=O)CC)c(-c2ccc(F)cc2)c1-c1ccc(S(C)(=O)=O)cc1 — lower, 56 to 58 °C
- CC1C(=O)NCCN1C(=O)C(Cl)Cl (stereo not given) — higher, 167 to 168 °C
- O=C(Nc1cccnc1)C(Cl)(Cl)Cl — higher, 149 to 151 °C
- CC(O)C#Cc1ccc(Cl)cc1 (stereo not given) — lower, 71 to 72 °C
- Cc1c(N2C(=O)C[C@](C)(O)[C@@H]2C)ccc(C#N)c1F — not separable, 138 to 141 °C
- CC(C)(C)OC(=O)Nc1ncc(F)s1 — higher, 157 to 159 °C
- Clc1cc2c(cc1Cn1c(C3OCCO3)nc(Br)c1Br)OCO2 — higher, 188 °C
- CS(=O)(=O)c1c2ccccc2c(C=O)c2ccccc12 — higher, 216 to 217 °C
- Cc1ccc(CC(=O)c2sccc2S(=O)(=O)Nc2onc(C)c2Br)cc1 — higher, 146 to 150 °C
- CCCc1c(COc2ccc(-c3nnn(CCCN(C)C)n3)cc2)ccc(C(C)=O)c1O — lower, 89 to 91 °C
- Cc1oc(-c2ccccc2)nc1CCOc1ccc(C[C@@H](C(=O)O)N2CCN(c3cccc(Cl)c3)CC2)cc1 — not separable, 138 to 139 °C
- O=[N+]([O-])c1cc(Cl)ncc1CCc1ccccc1 — lower, 76 to 78 °C
- CCNS(=O)(=O)Oc1cc(C(C)(C)C)c(SC2=C(O)CC(CCc3ccc(N)cc3)(CCc3ccc(N)cc3)OC2=O)cc1C — higher, 194 °C
- CC1=C(C)C(Cl)N(c2ccc(Cl)c(Cl)c2)C1=O (stereo not given) — lower, 95 to 96 °C
- Brc1cccc(-c2cc3nccnc3[nH]2)c1 — higher, 247 to 249 °C
- Cc1cc(NC(=O)c2c(Cl)cccc2Cl)c2nccc(N3CCN(C)C3=O)c2c1C — higher, 213 to 216 °C
- Oc1cc(-c2ccco2)c2oc(-c3ccc(O)c(F)c3)nc2c1 — higher, 155 °C
- O=c1c(Cl)c(Cl)cnn1[C@@H]1C[C@H](O)[C@@H](O)[C@H]1O (racemic) — higher, 163 °C
- CCCCCCCCCCCCCCCCOCC(COCCCCCCCCCCCCCCCC)NCCC#N — lower, 45 to 46 °C
- NCC(=O)Nc1ccc(Cl)cc1C(=O)c1c(F)cccc1F — lower, 133 to 135 °C
- Cc1cccc(Cl)c1N1CCCN(C(C)C)C1=S — lower, 135 to 136 °C
- CC(=O)CCc1cc(OC(C)=O)c(C(C)(C)C)cc1OC(C)=O — lower, 66.5 to 68 °C
- O=C1OC2(CCN(C(=O)Nc3cnc(-c4ccc(O)cc4)cn3)CC2)c2ccccc21 — higher, 263 to 265 °C
- COc1cc(OCCCN2CCOCC2)c(C=CC(=O)c2ccc(S(N)(=O)=O)cc2)cc1-c1cccs1 — higher, 193 to 196 °C
- Cc1c(-c2cccs2)nn2cc[nH]c12 — higher, 205 to 208 °C
- NC(=O)N(O)Cc1cc(Br)cs1 — higher, 162 to 164 °C
- OCc1ccc2oc(-c3cccs3)nc2c1 — higher, 158 to 159 °C
- COC(=S)c1cc(N)cc(N)c1C — lower, 102 to 104 °C
- COC(=O)NC1=NC(c2ccc(C(C)C)cc2)CCN1 (stereo not given) — higher, 195 to 197 °C
- Cn1c(=N)c(C(=O)NCCN2CCOCC2)c(O)c2cc(Cl)ccc21 — higher, 211 to 213 °C
- CON=Cc1cc(NC(=O)N2CCOCN2)c(Cl)cc1Cl — higher, 205 to 208 °C
- NS(=O)(=O)c1nc2ccc(OCC(O)CO)cc2s1 (stereo not given) — higher, 183 to 185 °C
- CN1CCCC[C@H]1C[C@H](O)c1ccc(Br)cc1 — lower, 102 to 104 °C
- O=C(O)CCC(=O)c1ccc(Br)c(S(=O)(=O)Cl)c1 — higher, 183 to 185 °C
- COc1ccc(C(=O)Nc2ccc(F)cc2)cc1N — higher, 164 to 167 °C
- COc1cc(-n2nc(C(F)(F)F)cc2C(F)(F)F)ccc1NC(=O)c1snnc1C — lower, 119 to 121 °C
- N#CC=C1CCN(c2ccc(N3C[C@H](CNC(=O)C(Cl)Cl)OC3=O)cc2F)CC1 — higher, 159 to 161 °C
- COc1ccccc1C(OC)c1cccnn1 (stereo not given) — lower, 110 to 111 °C
- CC1OC(=O)Nc2ccc(-c3cccc(Cl)c3)cc21 (stereo not given) — higher, 155 to 156 °C
- COc1cc2occ(C(=O)Nc3cccnc3)c2cc1C(F)(F)F — higher, 219 to 221 °C
- CN1CC(NCc2ccccc2)=Nc2ccc(Cl)cc2C1=O — higher, 158 to 160 °C
- COc1cc(C(C)=NNC(=N)NCc2ccccc2)cc(OC)c1OC — lower, 107 to 109 °C
- Nc1ccc2c(c1)c(-c1ccc(CO)o1)nn2Cc1ccccc1 — higher, 156 °C
- COc1cc(OC)c2c(=O)[nH]c(-c3cc(C)c(OCCN4CC(NC(C)=O)C4)c(C)c3)nc2c1 — lower, 112 to 114 °C
- O=C1c2ccc(NC(=O)C3CCCCC3)cc2C(=O)c2cc(NC(=O)C3CCCCC3)ccc21 — higher, 269 °C
- COc1ccc(CN2CCC(c3cn(Cc4ccoc4)c4ncccc34)CC2)cc1C(=O)O — higher, 230 to 232 °C
- Oc1cc(C(O)(c2ccccc2)c2ccccc2)c2ccccc2n1 — higher, > 350 °C
- C1=C(/C=C/c2ccccc2)CCN(Cc2c[nH]c3ncccc23)C1 — higher, 210 to 212 °C
- O=C(NCC1(c2nc(C3CC3)cs2)CC1)c1ccccc1C(F)(F)F — lower, 83.4 to 84.2 °C
- O=Cc1ccc2c3c1ccc1cccc(c13)C2 — higher, 209 to 212 °C
- CCOC(=O)c1nc(S)n2c1c(=O)n(C)c1cc(C(F)(F)F)ccc12 — higher, 282 °C
- CCOC(=O)CC(=O)c1cc(I)ccc1F — lower, 54 to 56 °C
- COc1cc(OC)nc(NC(=O)NS(=O)(=O)Cc2ccccc2S(C)(=O)=O)n1 — higher, 180 to 182 °C
- Cc1cc(-c2cc(C(F)(F)F)n3ncc(C(=O)Nc4cc(S(N)(=O)=O)sc4Cl)c3n2)ccc1C(F)(F)F — higher, 283 °C
- CC(C)(C)c1ccc(NC(=N)Nc2ccc(C(C)(C)C)cc2)cc1 — higher, 161 to 162 °C
- CSc1cn(C)c2ccsc2c1=O — higher, 171 to 174 °C
- O=C(c1ccc(S)cc1)c1ccc([N+](=O)[O-])cc1 — lower, 116 to 117 °C
- OCCN1CCN(c2cc(Cl)nnc2Cl)CC1 — not separable, 139 to 141 °C
- O=[N+]([O-])c1ccc(SCCc2c[nH]cn2)cc1 — higher, 167 to 168 °C
- O=[N+]([O-])c1ccc(S(=O)(=O)OS(=O)(=O)c2ccc([N+](=O)[O-])cc2)cc1 — higher, 171 to 172 °C
- O=C1OCc2ncccc21 — lower, 113 to 118 °C
- CC(C)NCC(O)COC1c2ccccc2C(=O)N1c1ccc(Cl)cc1 (stereo not given) — lower, 90 to 92 °C
- CC(C)(C)OC(=O)N1CCC(Oc2cccc3[nH]ncc23)C1 (stereo not given) — higher, 196 to 198 °C
- Cc1cc(C)c(Nc2nc(C)ccc2S(=O)(=O)c2ccc(OCc3ccccc3C#N)cc2)c(C)c1 — higher, 208 to 210 °C
- CCONS(=O)(=O)c1ccc(C)cc1 — lower, 94 to 95 °C
- CC(C)(C)OC(=O)Nc1cc(N2CCOC2=O)c(-c2ccc(F)cc2)cc1[N+](=O)[O-] — higher, 201 °C
- Cc1nnc(OC[C@H]2CN(c3ccc(C4=CCOCC4)c(F)c3)C(=O)O2)o1 — higher, 146 to 147 °C
- CCO/C(=N/O)C1Cc2cc(C(=O)CC)c(O)c(Cl)c2O1 (stereo not given) — higher, 146 to 147 °C
